Data: PubChem BioAssay (NCI)
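48-hour exposure; five concentrations; linearly interpolated endpoints. At the TGI there is no net growth.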

Assays:
Assay in all cases: growth of human tumour cells (NCI), 48 h
786-0 renal = tested on: 786-0 renal
A498 renal = tested on: A498 renal
A549 NSCLC = tested on: A549 NSCLC
ACHN renal = tested on: ACHN renal
BT-549 breast = tested on: BT-549 breast
CAKI-1 renal = tested on: CAKI-1 renal
CCRF-CEM leukemia = tested on: CCRF-CEM leukemia
COLO 205 colon = tested on: COLO 205 colon
DU-145 prostate = tested on: DU-145 prostate
EKVX NSCLC = tested on: EKVX NSCLC
HCT-116 colon = tested on: HCT-116 colon
HCT-15 colon = tested on: HCT-15 colon
HL-60(TB) leukemia = tested on: HL-60(TB) leukemia
HOP-92 NSCLC = tested on: HOP-92 NSCLC
HS 578T breast = tested on: HS 578T breast
HT29 colon = tested on: HT29 colon
IGROV1 ovarian = tested on: IGROV1 ovarian
KM12 colon = tested on: KM12 colon
LOX IMVI melanoma = tested on: LOX IMVI melanoma
M14 melanoma = tested on: M14 melanoma
MCF7 breast = tested on: MCF7 breast
MDA-MB-231 breast = tested on: MDA-MB-231 breast
MDA-MB-435 = tested on: MDA-MB-435
MDA-N = tested on: MDA-N
MOLT-4 leukemia = tested on: MOLT-4 leukemia
NCI-H226 lung = tested on: NCI-H226 lung
NCI-H23 lung = tested on: NCI-H23 lung
NCI-H460 lung = tested on: NCI-H460 lung
NCI-H522 lung = tested on: NCI-H522 lung
NCI/ADR-RES ovarian = tested on: NCI/ADR-RES ovarian
OVCAR-3 ovarian = tested on: OVCAR-3 ovarian
OVCAR-4 ovarian = tested on: OVCAR-4 ovarian
OVCAR-5 ovarian = tested on: OVCAR-5 ovarian
OVCAR-8 ovarian = tested on: OVCAR-8 ovarian
PC-3 prostate = tested on: PC-3 prostate
RPMI-8226 leukemia = tested on: RPMI-8226 leukemia
RXF 393 renal = tested on: RXF 393 renal
SF-268 CNS = tested on: SF-268 CNS
SF-295 CNS = tested on: SF-295 CNS
SF-539 CNS = tested on: SF-539 CNS
SK-MEL-2 melanoma = tested on: SK-MEL-2 melanoma
SK-MEL-5 melanoma = tested on: SK-MEL-5 melanoma
SK-OV-3 ovarian = tested on: SK-OV-3 ovarian
SN12C renal = tested on: SN12C renal
SNB-19 CNS = tested on: SNB-19 CNS
SNB-75 CNS = tested on: SNB-75 CNS
SR leukemia = tested on: SR leukemia
SW-620 colon = tested on: SW-620 colon
T-47D breast = tested on: T-47D breast
TK-10 renal = tested on: TK-10 renal
U251 CNS = tested on: U251 CNS
UACC-257 melanoma = tested on: UACC-257 melanoma
UACC-62 melanoma = tested on: UACC-62 melanoma
UO-31 renal = tested on: UO-31 renal
HOP-62 NSCLC = tested on: HOP-62 NSCLC
K-562 leukemia = tested on: K-562 leukemia
MALME-3M melanoma = tested on: MALME-3M melanoma
SK-MEL-28 melanoma = tested on: SK-MEL-28 melanoma

`CSc1ncc2c(n1)-c1ccccc1OC2` was tested, and the TGI (786-0 renal) was > 100 µM, the TGI (A498 renal) was 73.6 µM and the TGI (A549 NSCLC) was > 100 µM. For the same compound, the TGI (ACHN renal) was > 100 µM, the TGI (BT-549 breast) was > 100 µM and the TGI (CAKI-1 renal) was 84.7 µM. The TGI (CCRF-CEM leukemia) was > 100 µM, the TGI (COLO 205 colon) was > 100 µM and the TGI (DU-145 prostate) was > 100 µM. The TGI (EKVX NSCLC) was > 100 µM, the TGI (HCT-116 colon) was > 100 µM and the TGI (HCT-15 colon) was > 100 µM. For the same compound, the TGI (HL-60(TB) leukemia) was > 100 µM, the TGI (HOP-92 NSCLC) was 86.9 µM and the TGI (HS 578T breast) was > 100 µM. For the same compound, the TGI (HT29 colon) was > 100 µM, the TGI (IGROV1 ovarian) was > 100 µM and the TGI (KM12 colon) was > 100 µM. For the same compound, the TGI (LOX IMVI melanoma) was > 100 µM, the TGI (M14 melanoma) was > 100 µM and the TGI (MCF7 breast) was > 100 µM. The TGI (MDA-MB-231 breast) was > 100 µM, the TGI (MDA-MB-435) was > 100 µM and the TGI (MDA-N) was > 100 µM. The TGI (MOLT-4 leukemia) was > 100 µM, the TGI (NCI-H226 lung) was > 100 µM and the TGI (NCI-H23 lung) was > 100 µM. The TGI (NCI-H460 lung) was > 100 µM, the TGI (NCI-H522 lung) was > 100 µM and the TGI (NCI/ADR-RES ovarian) was > 100 µM. The TGI (OVCAR-3 ovarian) was > 100 µM, the TGI (OVCAR-4 ovarian) was > 100 µM and the TGI (OVCAR-5 ovarian) was > 100 µM. The TGI (OVCAR-8 ovarian) was > 100 µM, the TGI (PC-3 prostate) was > 100 µM and the TGI (RPMI-8226 leukemia) was > 100 µM. For the same compound, the TGI (RXF 393 renal) was > 100 µM, the TGI (SF-268 CNS) was > 100 µM and the TGI (SF-295 CNS) was > 100 µM. The TGI (SF-539 CNS) was > 100 µM, the TGI (SK-MEL-2 melanoma) was > 100 µM and the TGI (SK-MEL-5 melanoma) was > 100 µM. For the same compound, the TGI (SK-OV-3 ovarian) was > 100 µM, the TGI (SN12C renal) was > 100 µM and the TGI (SNB-19 CNS) was > 100 µM. The TGI (SNB-75 CNS) was > 100 µM, the TGI (SR leukemia) was > 100 µM and the TGI (SW-620 colon) was > 100 µM. The TGI (T-47D breast) was 62.5 µM, the TGI (TK-10 renal) was > 100 µM and the TGI (U251 CNS) was > 100 µM. For the same compound, the TGI (UACC-257 melanoma) was > 100 µM, the TGI (UACC-62 melanoma) was > 100 µM and the TGI (UO-31 renal) was > 100 µM.

With `COc1ccc(C(O)c2ccccn2)cc1` (centres undefined) the TGI (786-0 renal) was > 100 µM, the TGI (A498 renal) was > 100 µM and the TGI (A549 NSCLC) was > 100 µM. For the same compound, the TGI (ACHN renal) was > 100 µM, the TGI (BT-549 breast) was > 100 µM and the TGI (CAKI-1 renal) was > 100 µM. The TGI (COLO 205 colon) was > 100 µM, the TGI (DU-145 prostate) was > 100 µM and the TGI (EKVX NSCLC) was > 100 µM. For the same compound, the TGI (HCT-116 colon) was > 100 µM, the TGI (HCT-15 colon) was > 100 µM and the TGI (HOP-62 NSCLC) was > 100 µM. For the same compound, the TGI (HOP-92 NSCLC) was > 100 µM, the TGI (HS 578T breast) was > 100 µM and the TGI (HT29 colon) was > 100 µM. The TGI (IGROV1 ovarian) was > 100 µM, the TGI (K-562 leukemia) was > 100 µM and the TGI (KM12 colon) was > 100 µM. The TGI (LOX IMVI melanoma) was > 100 µM, the TGI (M14 melanoma) was > 100 µM and the TGI (MALME-3M melanoma) was > 100 µM. The TGI (MCF7 breast) was > 100 µM, the TGI (MDA-MB-231 breast) was > 100 µM and the TGI (MDA-MB-435) was > 100 µM. The TGI (MDA-N) was > 100 µM, the TGI (MOLT-4 leukemia) was > 100 µM and the TGI (NCI-H226 lung) was > 100 µM. For the same compound, the TGI (NCI-H23 lung) was > 100 µM, the TGI (NCI-H460 lung) was > 100 µM and the TGI (NCI-H522 lung) was > 100 µM. For the same compound, the TGI (NCI/ADR-RES ovarian) was > 100 µM, the TGI (OVCAR-3 ovarian) was > 100 µM and the TGI (OVCAR-4 ovarian) was > 100 µM. The TGI (OVCAR-5 ovarian) was > 100 µM, the TGI (OVCAR-8 ovarian) was > 100 µM and the TGI (PC-3 prostate) was > 100 µM. For the same compound, the TGI (RPMI-8226 leukemia) was > 100 µM, the TGI (RXF 393 renal) was > 100 µM and the TGI (SF-268 CNS) was > 100 µM. For the same compound, the TGI (SF-295 CNS) was > 100 µM, the TGI (SF-539 CNS) was > 100 µM and the TGI (SK-MEL-2 melanoma) was > 100 µM. For the same compound, the TGI (SK-MEL-28 melanoma) was > 100 µM, the TGI (SK-MEL-5 melanoma) was > 100 µM and the TGI (SK-OV-3 ovarian) was > 100 µM. For the same compound, the TGI (SN12C renal) was > 100 µM, the TGI (SNB-19 CNS) was > 100 µM and the TGI (SNB-75 CNS) was > 100 µM. The TGI (SR leukemia) was > 100 µM, the TGI (SW-620 colon) was > 100 µM and the TGI (T-47D breast) was > 100 µM. For the same compound, the TGI (TK-10 renal) was > 100 µM, the TGI (U251 CNS) was > 100 µM and the TGI (UACC-257 melanoma) was > 100 µM. The TGI (UACC-62 melanoma) was > 100 µM.
